Read-outs that look alike come from different tables or passages of the source.
Key:
wild type LRRK2 = wild type LRRK2 (Homo sapiens (Human), UniProt Q5S007); assay: LRRK2 enzyme kinase assay, wild type; type: biochemical
LRRK2[G2019S] = LRRK2[G2019S] (Homo sapiens (Human), UniProt Q5S007, G2019S); assay: LRRK2 enzyme kinase assay, G2019S; type: biochemical
LRRK2 [1] = target: LRRK2 (Mus musculus (Mouse), UniProt Q5S006); assay: Pharmacodynamic study, LRRK2 Ser910/Ser935 phosphorylation in mouse kidney, spleen and brain; type: in vivo
LRRK2 [2] = conditions: G2019S LRRK2 transgenic mice, oral dosing; cited from earlier work
[3] = target: GST-LRRK2[G2019S + A2016T](1,326-2,517) (Homo sapiens (Human), UniProt Q5S007, A2016T/G2019S); assay: Nictide peptide kinase assay, 100 μM ATP; type: biochemical; conditions: 20 μM Nictide
Procedure: (§1) Assay procedures are further discussed in Section 4 herein.
(§2) Samples were washed extensively and the incorporation of [γ-32P]ATP into Nictide was quantified by Cerenkov counting. IC50 values were calculated with GraphPad Prism using non-linear regression analysis.

[4] = target: GST-LRRK2[A2016T](1326-2517) (Homo sapiens (Human), UniProt Q5S007, A2016T); assay: Nictide peptide kinase assay, 100 μM ATP; type: biochemical; conditions: 20 μM Nictide
Procedure: as §1, §2

[5] = target: GST-LRRK2(1,326-2,517) wild-type (Homo sapiens (Human), UniProt Q5S007); assay: Nictide peptide kinase assay, 100 μM ATP; type: biochemical; conditions: 20 μM Nictide
Procedure: as §1, §2

[6] = target: GST-LRRK2[G2019S](1,326-2,527) (Homo sapiens (Human), UniProt Q5S007, G2019S); assay: Nictide peptide kinase assay, 100 μM ATP; type: biochemical; conditions: 20 μM Nictide
Procedure: as §1, §2

[7] = Table 1, ATP at Km 36 μm, read-out: Enzyme IC50 wt
[8] = Table 3, read-out: Enzyme IC50 WT

wild type LRRK2, sequence (Q5S007 1326-2527): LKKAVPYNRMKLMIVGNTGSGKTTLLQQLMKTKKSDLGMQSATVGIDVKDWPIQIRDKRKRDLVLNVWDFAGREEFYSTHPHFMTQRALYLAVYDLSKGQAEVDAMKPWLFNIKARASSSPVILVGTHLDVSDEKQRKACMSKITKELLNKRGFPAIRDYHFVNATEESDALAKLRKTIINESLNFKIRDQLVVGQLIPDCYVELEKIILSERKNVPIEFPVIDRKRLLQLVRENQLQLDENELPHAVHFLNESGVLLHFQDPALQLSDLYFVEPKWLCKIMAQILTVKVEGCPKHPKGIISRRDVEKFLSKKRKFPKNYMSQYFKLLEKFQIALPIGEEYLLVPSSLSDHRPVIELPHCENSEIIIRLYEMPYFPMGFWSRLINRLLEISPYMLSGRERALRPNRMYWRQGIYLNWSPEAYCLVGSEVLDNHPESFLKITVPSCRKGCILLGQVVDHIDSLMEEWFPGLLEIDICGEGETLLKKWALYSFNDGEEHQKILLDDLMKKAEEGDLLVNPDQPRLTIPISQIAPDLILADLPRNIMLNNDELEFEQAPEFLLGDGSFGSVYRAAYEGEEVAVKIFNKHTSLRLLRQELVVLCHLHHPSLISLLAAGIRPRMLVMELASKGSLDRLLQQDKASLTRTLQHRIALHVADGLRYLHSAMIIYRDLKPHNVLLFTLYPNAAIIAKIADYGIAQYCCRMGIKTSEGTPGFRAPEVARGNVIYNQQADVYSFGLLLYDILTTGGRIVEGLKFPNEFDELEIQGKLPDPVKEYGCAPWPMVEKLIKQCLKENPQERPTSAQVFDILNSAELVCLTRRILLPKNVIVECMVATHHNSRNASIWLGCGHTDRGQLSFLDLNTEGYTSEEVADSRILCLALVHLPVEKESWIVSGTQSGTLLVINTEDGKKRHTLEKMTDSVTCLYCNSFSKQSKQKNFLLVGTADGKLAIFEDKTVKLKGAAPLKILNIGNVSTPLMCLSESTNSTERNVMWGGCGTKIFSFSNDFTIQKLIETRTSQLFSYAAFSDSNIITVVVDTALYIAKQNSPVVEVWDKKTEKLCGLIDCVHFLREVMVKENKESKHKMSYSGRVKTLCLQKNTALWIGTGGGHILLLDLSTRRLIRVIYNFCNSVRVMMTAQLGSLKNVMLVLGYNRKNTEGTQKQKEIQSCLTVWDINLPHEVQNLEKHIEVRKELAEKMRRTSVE
LRRK2[G2019S], sequence (Q5S007 1326-2527 G2019S): as the sequence (Q5S007 1326-2527) above, with G694S counted along it
LRRK2 (Mus musculus (Mouse), UniProt Q5S006), sequence (Q5S006 whole entry, looked up): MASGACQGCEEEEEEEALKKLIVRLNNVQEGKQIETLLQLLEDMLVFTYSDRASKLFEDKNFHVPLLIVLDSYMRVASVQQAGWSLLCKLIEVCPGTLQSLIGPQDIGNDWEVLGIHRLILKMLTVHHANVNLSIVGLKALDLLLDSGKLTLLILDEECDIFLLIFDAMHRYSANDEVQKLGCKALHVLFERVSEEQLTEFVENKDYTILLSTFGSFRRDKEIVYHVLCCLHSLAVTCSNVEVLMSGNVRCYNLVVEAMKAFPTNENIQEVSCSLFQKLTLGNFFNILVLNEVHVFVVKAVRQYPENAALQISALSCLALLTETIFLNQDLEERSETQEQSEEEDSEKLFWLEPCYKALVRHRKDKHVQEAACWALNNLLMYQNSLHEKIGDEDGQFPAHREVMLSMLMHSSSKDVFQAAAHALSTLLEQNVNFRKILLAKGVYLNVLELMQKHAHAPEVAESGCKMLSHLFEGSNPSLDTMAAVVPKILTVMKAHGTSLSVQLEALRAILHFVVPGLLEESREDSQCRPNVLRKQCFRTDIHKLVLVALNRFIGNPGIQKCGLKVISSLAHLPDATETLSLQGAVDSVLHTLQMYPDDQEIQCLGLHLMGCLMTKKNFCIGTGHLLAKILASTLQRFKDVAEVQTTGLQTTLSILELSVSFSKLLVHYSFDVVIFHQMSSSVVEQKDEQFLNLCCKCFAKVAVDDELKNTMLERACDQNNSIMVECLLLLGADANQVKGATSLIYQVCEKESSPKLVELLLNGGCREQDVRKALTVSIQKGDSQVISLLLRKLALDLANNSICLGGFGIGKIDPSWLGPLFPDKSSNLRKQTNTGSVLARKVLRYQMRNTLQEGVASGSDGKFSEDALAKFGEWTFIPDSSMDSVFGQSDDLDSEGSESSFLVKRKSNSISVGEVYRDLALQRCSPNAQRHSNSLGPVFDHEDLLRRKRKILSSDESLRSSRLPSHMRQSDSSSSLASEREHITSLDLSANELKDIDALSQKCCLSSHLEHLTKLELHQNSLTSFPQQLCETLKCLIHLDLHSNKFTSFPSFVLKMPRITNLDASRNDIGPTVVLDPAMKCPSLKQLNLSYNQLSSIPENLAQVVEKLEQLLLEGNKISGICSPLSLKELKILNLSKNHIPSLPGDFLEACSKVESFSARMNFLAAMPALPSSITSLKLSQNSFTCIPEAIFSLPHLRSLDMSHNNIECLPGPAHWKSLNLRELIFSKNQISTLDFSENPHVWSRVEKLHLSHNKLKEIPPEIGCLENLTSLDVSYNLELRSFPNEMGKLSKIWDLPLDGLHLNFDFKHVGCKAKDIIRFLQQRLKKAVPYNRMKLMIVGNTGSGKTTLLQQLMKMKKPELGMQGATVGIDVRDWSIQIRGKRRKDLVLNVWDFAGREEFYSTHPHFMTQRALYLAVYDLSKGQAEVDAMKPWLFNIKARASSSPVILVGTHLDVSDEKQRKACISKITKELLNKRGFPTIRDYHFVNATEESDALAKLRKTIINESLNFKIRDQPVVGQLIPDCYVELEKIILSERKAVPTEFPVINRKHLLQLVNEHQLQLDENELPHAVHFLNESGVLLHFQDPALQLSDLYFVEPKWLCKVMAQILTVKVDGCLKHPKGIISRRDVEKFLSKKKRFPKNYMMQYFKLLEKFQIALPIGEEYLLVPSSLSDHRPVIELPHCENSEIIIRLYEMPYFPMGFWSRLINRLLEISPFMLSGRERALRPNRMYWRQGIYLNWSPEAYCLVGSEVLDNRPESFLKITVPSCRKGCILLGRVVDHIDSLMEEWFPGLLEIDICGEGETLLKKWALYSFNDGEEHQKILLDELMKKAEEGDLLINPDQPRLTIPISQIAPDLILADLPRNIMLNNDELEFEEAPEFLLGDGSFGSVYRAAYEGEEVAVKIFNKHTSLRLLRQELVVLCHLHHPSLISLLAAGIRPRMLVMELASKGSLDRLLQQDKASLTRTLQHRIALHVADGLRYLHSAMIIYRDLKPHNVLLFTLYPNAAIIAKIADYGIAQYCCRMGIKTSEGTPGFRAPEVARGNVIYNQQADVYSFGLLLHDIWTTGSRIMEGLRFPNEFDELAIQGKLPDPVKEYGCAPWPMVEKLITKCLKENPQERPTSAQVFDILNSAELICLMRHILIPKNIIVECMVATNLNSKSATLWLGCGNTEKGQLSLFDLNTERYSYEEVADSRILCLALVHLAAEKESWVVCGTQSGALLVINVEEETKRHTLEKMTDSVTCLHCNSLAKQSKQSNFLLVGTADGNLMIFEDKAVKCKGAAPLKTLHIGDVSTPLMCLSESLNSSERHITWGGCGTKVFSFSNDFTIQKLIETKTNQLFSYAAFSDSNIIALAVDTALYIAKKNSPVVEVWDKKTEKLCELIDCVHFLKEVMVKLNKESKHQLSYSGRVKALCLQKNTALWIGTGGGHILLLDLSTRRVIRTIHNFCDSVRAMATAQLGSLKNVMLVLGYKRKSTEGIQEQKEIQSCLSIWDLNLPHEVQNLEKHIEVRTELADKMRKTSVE
GST-LRRK2[G2019S + A2016T](1,326-2,517), sequence (Q5S007 1326-2527 A2016T/G2019S): as the sequence (Q5S007 1326-2527) above, with A691T, G694S counted along it
GST-LRRK2(1,326-2,517) wild-type, sequence (Q5S007 1326-2527): as the sequence (Q5S007 1326-2527) above
GST-LRRK2[A2016T](1326-2517), sequence (Q5S007 1326-2527 A2016T): as the sequence (Q5S007 1326-2527) above, with A691T counted along it
GST-LRRK2[G2019S](1,326-2,527), sequence (Q5S007 1326-2527 G2019S): as the sequence (Q5S007 1326-2527) above, with G694S counted along it

| Compound | IC50 (wild type LRRK2; [7]) | IC50 (LRRK2[G2019S]; Table 1, ATP at Km 112 μm) | further results |
| --- | --- | --- | --- |
| COc1cc(C(=O)N2CCOCC2)ccc1Nc1nc(OC)c2cc[nH]c2n1 [Compound 9, (3-methoxy-4-((4-methoxy-7H-pyrrolo[2,3-d]pyrimidin-2-yl)amino)phenyl) (morpholino)methanone] | 13.6 nM | 95.7 nM | – |
| COc1cc(C(=O)N2CCOCC2)ccc1Nc1ncc2cc[nH]c2n1 [Compound 10] | 34 nM | 40 nM | – |
| COCCNc1nc(Nc2ccc(C(=O)N3CCOCC3)cc2OC)nc2[nH]ccc12 [Compound 11] | 4 nM | 3 nM | – |
| CCNc1nc(Nc2ccc(C(=O)N3CCOCC3)cc2OC)nc2[nH]ccc12 [Compound 12] | 1.1 nM | 2.5 nM | – |
| CCCNc1nc(Nc2ccc(C(=O)N3CCOCC3)cc2OC)nc2[nH]ccc12 [Compound 13] | 1.6 nM | 2.4 nM | – |
| COc1cc(C(=O)N2CCOCC2)ccc1Nc1nc(NCC2CCCO2)c2cc[nH]c2n1 (stereo not shown) [Compound 14] | 3.3 nM | 4.4 nM | – |
| COc1cc(C(=O)N2CCOCC2)ccc1Nc1nc(NC2CC2)c2cc[nH]c2n1 [Compound 15] | 2.4 nM | 4.7 nM | – |
| CNc1nc(Nc2cc(F)c(C(=O)N3CCOCC3)cc2OC)nc2[nH]ccc12 [Compound 16] | 2.1 nM | 7.1 nM | – |
| COc1cc(C(=O)N2CCOCC2)ccc1Nc1ncc2c(Cl)c[nH]c2n1 [Compound 17] | 159 nM | 108 nM | – |
| CCNc1nc(Nc2ccc(C(=O)N3CCOCC3)cc2OC)nc2[nH]cc(Cl)c12 [Compound 19] | 1.4 nM | 4.4 nM | – |
| CCCNc1nc(Nc2ccc(C(=O)N3CCOCC3)cc2OC)nc2[nH]cc(Cl)c12 [Compound 20] | 7.7 nM | 12.4 nM | – |
| CNc1nc(Nc2ccc(C(=O)N3CCOCC3)cc2OC)nc2[nH]cnc12 [Compound 21, (3-methoxy-4-((6-(methylamino)-9H-purin-2-yl)amino)phenyl)(morpholino) methanone] | – | – | IC50 (wild type LRRK2; [8]): 35 nM; IC50 (LRRK2[G2019S]; Table 3): 44 nM |
| COc1cc(C(=O)N2CCOCC2)ccc1Nc1nc(OC)c2nc[nH]c2n1 [Compound 22, (3-methoxy-4-((6-methoxy-9H-purin-2-yl)amino)phenyl)(morpholino)methanone] | – | – | IC50 (wild type LRRK2; [8]): 3 nM; IC50 (LRRK2[G2019S]; Table 3): 3 nM |
| COc1cc(C(=O)N2CCOCC2)ccc1Nc1nc(OC)c2cn[nH]c2n1 [Compound 24, (3-methoxy-4-((4-methoxy-1H-pyrazolo[3,4-d]pyrimidin-6-yl)amino)phenyl) (morpholino)methanone] | – | – | IC50 (wild type LRRK2; [8]): 19.4 nM; IC50 (LRRK2[G2019S]; Table 3): 18.5 nM |
| CCNc1nc(Nc2cc(F)c(C(=O)N3CCOCC3)cc2OC)ncc1C(F)(F)F [GNE7915, reference compound] | – | – | dephosphorylation of Ser935 of LRRK2 in kidney, spleen and brain (LRRK2 [1]; 100 mg/kg, intraperitoneal): near complete dephosphorylation of Ser935 of LRRK2; dose at which complete inhibition in brain was observed (LRRK2 [1]; doses 10, 30, 50, 100 mg/kg): 100 mg/kg; reduction of LRRK2 activity in brain (Ser935 phosphorylation) (LRRK2 [2]): significantly reduce LRRK2 activity in the brain |
| O=C(Nc1cccnc1)c1cc(-c2ccnc(F)c2)ccc1OCc1ccccc1 [GSK2578215A] | – | – | IC50 [3]: 61.3 nM; IC50 [4]: 81.1 nM; IC50 [5]: 10.9 nM; IC50 [6]: 8.9 nM |
| CNc1nc(Nc2ccc(C(=O)N3CCOCC3)cc2OC)ncc1Cl [HG-10-102-01] | – | – | reduction of LRRK2 activity in brain (Ser935 phosphorylation) (LRRK2 [2]): significantly reduce LRRK2 activity in the brain |
| COc1cc(C(=O)N2CCC(N3CCN(C)CC3)CC2)ccc1Nc1ncc2c(n1)N(C)c1ccccc1C(=O)N2C [LRRK2-IN-1] | – | – | IC50 [3]: 3080 nM; IC50 [4]: 2450 nM; IC50 [5]: 13 nM; IC50 [6]: 6 nM |
| N#Cc1cccc(-c2c[nH]c3ncnc(N4CCOCC4)c23)c1 [PF-06447474] | – | – | reduction of LRRK2 activity in brain (Ser935 phosphorylation) (LRRK2 [2]): capable of reducing LRRK2 activity in the brain |
| (3-methoxy-4-((4-(methylamino)-1H-pyrazolo[3,4-d]pyrimidin-6-yl)amino)phenyl)(morpholino)methanone [Compound 23] | – | – | IC50 (wild type LRRK2; [8]): 11.5 nM; IC50 (LRRK2[G2019S]; Table 3): 4 nM |

— US10913744B2, “LRRK2 inhibitors and methods of making and using the same” (Dana-Farber Cancer Institute, Inc., priority 2015, dated 2021)
